Source: a melting point compilation (Tetko et al.; mined from patent text by program, amines drawn as free bases though some values may be those of a salt)

| Structure (SMILES) | melting point |
| --- | --- |
| CSc1ccc(-c2c(C)nnc(Cl)c2-c2ncc(Cl)cc2Cl)nc1 | 163 °C |
| Cc1ccc(C(=O)c2ccc(CC#N)n2C)s1 | 118 to 121 °C |
| Cc1ccc(NC(=O)CCCC2CCCCC2)cc1NC(=O)c1ccc(O)cc1 | 159 to 160 °C |
| CCOC(=O)c1ccc2c(c1)CC(Cc1cncs1)C2 (stereo unspecified) | 47 to 49 °C |
| N#Cc1cc(-c2ccc(Cl)cc2Cl)c[nH]c1=O | > 260 °C |
| C#CCOc1cc(-n2c(=S)n3n(c2=S)COCC3)c(F)cc1Cl | 167 to 169 °C |
| COC1=NC(=O)c2c1cc1ccc3c(c1c2-c1ccc2c(c1)OCO2)OCO3 | 306 to 308 °C |
| CSC(NCCSCc1[nH]cnc1C)=C(C#N)C(N)=O | 137 to 139 °C |
| CC1CCN=C2C(=O)c3cc(Br)ccc3N21 (stereo unspecified) | 127 to 129 °C |
| Cc1nccn1CCNC(=O)c1cccc2oc(-c3ccccc3)nc12 | 125 to 127 °C |
| CC(C)NN(C[C@@H](O)[C@H](Cc1ccccc1)NC(=O)OCc1ccccc1)C(=O)OC(C)(C)C | 118 to 120 °C |
| CC(C)Oc1cc(/C=C/C(=O)O)n(Cc2ccc(C(F)(F)F)cc2Cl)n1 | 170 to 171 °C |
| COc1ccc(-c2c(-c3ccccc3)nc3n2CCS3)cc1OC | 176 to 178 °C |
| Cc1[nH]c2ccc(C(=O)NS(=O)(=O)CCCCl)cc2c1Cc1ccc(Cl)cc1Cl | 95.5 to 96.2 °C |
| O=S(=O)(CCCN1CCN(c2ncc(F)cn2)CC1)c1ccc(F)cc1 | 132 to 134 °C |
| Cc1nc(-c2ccc(N3CCOCC3)c([N+](=O)[O-])c2)sc1C(=O)O | 218 to 220 °C |
| CCS(=O)c1cc(C(=O)O)c(OC)cc1N (stereo unspecified) | 158 °C |
| O=C(O)CCCC(=O)c1ccc(O)c(O)c1 | 210 to 215 °C |
| CCCc1nnc2n1-c1sc(CC)cc1C(c1ccccc1Cl)=NC2NC(=O)c1ccc2ccccc2c1 (stereo unspecified) | 226 to 227 °C |
| CCCc1cc(COc2cc(CC)nc(C)c2OC)ccc1-c1ccccc1S(=O)(=O)Nc1noc(C)c1C | 63 to 65 °C |
| O=C(CCl)NC1CCCc2sccc21 (stereo unspecified) | 115 to 119 °C |
| COc1cc(C(F)(F)F)cc(Cl)c1Oc1ccc2ccc(O)cc2c1 | 130 °C |
| CCSCCC(=O)NNC(=O)N1Cc2ccccc2Oc2ccc(Cl)cc21 | 126 to 129 °C |
| O=C(O)c1cc2ccc(OCc3ccccc3)cc2o1 | 199 to 201 °C |

| Structure (SMILES) | melting point |
| --- | --- |
| Sc1nnnn1CCCc1ccccc1 | 75 to 76 °C |
| CCn1c(=O)c2[nH]c(/C=C/c3ccccc3F)nc2n(CC)c1=O | > 270 °C |
| CC1c2ccccc2CC(=O)Cc2ccccc21 | 152 to 155 °C |
| CNC(=O)c1cccc(NC(=O)Cc2cccc(C)c2)c1 | 131 °C |
| Cc1cnnc2c1C(=O)CC(c1ccsc1)C2 (stereo unspecified) | 125 to 126 °C |
| O=C1N(c2ccccc2Br)Cc2cnc(Nc3ccccc3)nc2N1c1cccc2ccccc12 | 120 to 125 °C |
| N#CC(c1ccccc1)c1cc(Oc2cc(Cl)cc(Cl)c2)c2c(=O)c3ccccc3sc2c1 (stereo unspecified) | 145 to 155 °C |
| O=C(NC(Cc1c[nH]c2ccccc12)C(=O)OCc1ccccc1C(F)(F)F)c1ccccc1 (stereo unspecified) | 117 °C |
| c1ccc(CNc2nccc3[nH]cnc23)cc1 | 60 to 64 °C |
| CC(C)NS(=O)(=O)c1ccc(N2CCC(N3C(=O)OCc4ccccc43)CC2)c([N+](=O)[O-])c1 | 168 °C |
| CSCC(C)(C)NC(=O)c1c(NC(=O)c2cc(C(F)(F)F)nn2-c2ncccc2Cl)c(Cl)cc2cn[nH]c12 | 100 to 105 °C |
| CC(C)(C)N=NC(C)(C)C#N | 17 °C |
| C=CCN1CC2OC(c3ccccc3)(C1)c1ccccc12 (stereo unspecified) | 127 to 128 °C |
| NC(=O)c1nc(-c2cccnc2Cl)nc2c1[nH]c(=O)n2-c1ccccc1 | 283 to 286 °C |
| CC(=O)Nc1cccc(-c2nc3n(n2)CCc2ccccc2-3)c1 | 225 to 226 °C |
| COc1ccc(CNc2nc(-c3ccccc3)c(-c3ccc(=O)n(C)n3)nc2C#N)cc1 | 166 to 168 °C |
| CCN(CC)CCNC(=O)c1cc(Cl)c(N)cc1OCC(C)=O | 105 to 106 °C |
| CC1(C)NC(=O)N(CC(CCS(=O)(=O)c2ccc(-c3ccc(C(F)(F)F)cc3)cc2)N(O)C=O)C1=O (stereo unspecified) | 125 °C |
| COC(=O)c1c(Cc2ccc(C(=O)NCCO)cc2)c(=O)c2ccc(Cl)cc2n1-c1ccccc1 | 162 to 164 °C |
| CCOP(=O)(/C=C/c1cn(C)nc1OCc1ccc(OCc2nc(-c3ccco3)oc2C)c(OC)c1)OCC | 72 to 73 °C |
| COC(=O)C1=C(O)CCc2c(OC)cccc21 | 55 to 58 °C |
| NC(=O)c1cnccc1-c1ccccc1C(=O)N1Cc2ccccc2Cc2ccccc21 | 217 to 220 °C |
| O=C(O)c1cn(-c2ccc(F)cc2F)c2c(F)c(N3Cc4ccccc4C3)c(F)cc2c1=O | 264 to 268 °C |
| C=C1N(CCC)C(=O)OC12CCNCC2 | 106 to 108 °C |

| Structure (SMILES) | melting point |
| --- | --- |
| Cn1c(C(F)(F)F)cc(=O)n(-c2ccc(OCc3ccc(Cl)cc3)cc2)c1=O | 167 to 169 °C |
| CC(C)(C)OC(=O)COCCC1CCN(c2cnc(-c3ccccc3)c(-c3ccccc3)n2)CC1 | 104 to 106 °C |
| CCn1cc(C(=O)O)c(=O)c2cc(F)c(N3CC(C)(N)C3)cc21 | 280 to 283 °C |
| CCc1[nH]nc2c1C(=O)c1c(NC(N)=O)cccc1-2 | > 250 °C |
| Cc1ccc(NC2=C(C(=O)Nc3ccccc3)C(=O)OC2)cc1 | 181 to 183 °C |
| CCCCC/C(=C\C=C\C(=O)O)c1ccc(F)cc1 | 116 to 118 °C |
| CC1CCN(c2c(-c3ccc(F)cc3Cl)c(C#N)nc3ncnn23)CC1 | 247 °C |
| CCCc1ccc([C@H]2CC[C@H](O)CC2)cc1 | 78.2 to 80 °C |
| C=CC(=O)NCc1ccc([N+](=O)[O-])cc1 | 119 to 121 °C |
| O=c1c2c(CCc3ccc([N+](=O)[O-])cc3)n[nH]c2c2cccnc2n1-c1ccccc1 | 260 to 262 °C |
| Cc1ccc(OC(=O)N2CC3CC(CN(CC(O)COc4ccc(C#N)cc4)C3)C2)cc1 (stereo unspecified) | 125 to 126 °C |
| COCCOC[C@H](CC1(C(=O)N[C@H]2CC[C@@H](C(=O)O)CC2)CCCC1)C(=O)O | 108 °C |
| CC1(O)C(O)C(CO)OC1n1ccc2c(N)ncnc21 (stereo unspecified) | 222 °C |
| CN(C)CCOc1ccc(Nc2nccc(-c3c[nH]nc3-c3ccc(OCc4ccccc4)cc3)n2)cc1 | 87 to 91 °C |
| COc1cc(C(=O)N(C(C)C)C2CCCCC2)ccc1Cn1cccc2nc(C)nc1-2 | 218 to 221 °C |
| COC(=O)C1C(=O)Nc2ccc(C(F)(F)F)cc2CC1c1ccccc1Cl (stereo unspecified) | 183 to 184 °C |
| COc1ccc(-c2nc(-c3cccs3)c[nH]2)cc1Br | 84 to 87 °C |
| Oc1cc2c(cc1O)OCC(c1cccc(F)c1)C2 (stereo unspecified) | 121 to 123 °C |
| CCCCCc1cc2c(nc(O)n2CC2CCOCC2)c(N)n1 | > 250 °C |
| CN(NC(=O)c1ccccc1CO)C(=S)Nc1cccc(F)c1 | 136 to 137 °C |
| COc1ccccc1N1CCN(Cc2c(C3CC3)nn(-c3ccccc3)c2N)CC1 | 70 to 74 °C |
| C=CCONC(=O)c1nc(-c2ccc(C)cc2)cc(N)c1Cl | 177 to 179 °C |
| COc1ccc(C#Cc2cccc(C(C)N(O)C(N)=O)c2)cc1 (stereo unspecified) | 141 to 142 °C |
